Assay results reported in US8629141B2, “Spiro-oxindole MDM2 antagonists” (The Regents of the University of Michigan, priority 2011, dated 2014).

What was measured:
[1] = target: recombinant human His-tagged MDM2 protein (residues 1-118) (Homo sapiens (Human), UniProt Q00987); assay: Fluorescence-polarization MDM2 competitive binding assay; conditions: for IC50: FP competition with PMDM6-F peptide (1 nM), MDM2 10 nM, 3 h incubation, read-out: Binding affinities to MDM2 (1-118) IC50
Method: The binding affinity of the MDM2 inhibitors disclosed herein was determined using a fluorescence polarization-based (FP-based) binding assay using a recombinant human His-tagged MDM2 protein (residues 1-118) and a fluorescently tagged p53-based peptide.
(García-Echeverria et al., J. Med. Chem. 43: 3205-3208 (2000)). […] The assay was performed in the buffer: 100 mM potassium phosphate, pH 7.5; 100 μg/mL bovine gamma globulin; 0.02% sodium azide, 0.01% Triton X-100) and the polarization values were measured after 3 h of incubation using an ULTRA READER (Tecan U.S. Inc., Research Triangle Park, N.C.). […] The Kd value was calculated using the equation: Kd value=IC50−L0/2.
100 μg/mL bovine gamma globulin; 0.02% sodium azide, 0.01% Triton X-100), were added in a Dynex 96-well, black, round-bottom plate to produce a final volume of 125 μL. […] The polarization values were measured after 3 h of incubation. […] Curve fitting was performed using […] PRISM software (GraphPad Software, Inc., San Diego, Calif.).

[2] = Stability in 1:1 MeOH:H2O with 10% TFA; format: physicochemical; conditions: 1:1 MeOH:H2O with 10% TFA added, UPLC (FIG. 6)
Method: The stability of Compound Example Nos. 10 and 11 were determined in 1:1 MeOH:H2O with 10% TFA added using ultra performance liquid chromatography (FIG. 6).

[3] = Stability of compounds in solution, 1:1 CH3CN:H2O; format: physicochemical; conditions: ultra performance liquid chromatography (FIG. 5)
[4] = Stability of compounds in solution, 1:1 MeOH:H2O; format: physicochemical; conditions: ultra performance liquid chromatography (FIG. 4)

SMILES	IC50 [1]	other results
CS(=O)(=O)CCN1CCC(NC(=O)[C@@H]2NC3(CCCCC3)[C@@]3(C(=O)Nc4cc(Cl)ccc43)[C@H]2c2cccc(Cl)c2F)CC1 [Compound 25]	< 0.1 µM	
O=C(NCCN1CCOCC1)[C@@H]1NC2(CCOCC2)[C@@]2(C(=O)Nc3cc(Cl)ccc32)[C@H]1c1cccc(Cl)c1F [Compound 12]	< 5 µM	
CCC1(CC)N[C@@H](C(=O)NCCN2CCOCC2)[C@H](c2cccc(Cl)c2F)[C@]12C(=O)Nc1cc(Cl)ccc12 [Compound 6]	< 1 µM	
O=C(O)[C@@H]1NC2(CCCCC2)[C@@]2(C(=O)Nc3cc(Cl)ccc32)[C@H]1c1cccc(Cl)c1F [Compound 26]	< 0.5 µM	
O=C(NCCN1CCOCC1)[C@@H]1NC2(CCCCC2)[C@@]2(C(=O)Nc3cc(Cl)ccc32)[C@H]1c1cccc(Cl)c1F [Compound 15]	< 0.1 µM	
CC1(O)CC(NC(=O)[C@@H]2NC3(CCCCC3)[C@@]3(C(=O)Nc4cc(Cl)ccc43)[C@H]2c2cccc(Cl)c2F)C1 (some centres unmarked) [Compound 33]	< 0.1 µM	
O=C(NC1CN(C(=O)O)C1)[C@@H]1NC2(CCCCC2)[C@@]2(C(=O)Nc3cc(Cl)ccc32)[C@H]1c1cccc(Cl)c1F [Compound 39]	< 0.1 µM	
O=C(NCc1nnn[nH]1)[C@@H]1NC2(CCCCC2)[C@@]2(C(=O)Nc3cc(Cl)ccc32)[C@H]1c1cccc(Cl)c1F [Compound 32]	< 0.1 µM	
O=C(NCCN1CCOCC1)[C@@H]1NC2(CCC(F)(F)CC2)[C@@]2(C(=O)Nc3cc(Cl)ccc32)[C@H]1c1cccc(Cl)c1F [Compound 7]	< 1 µM	
O=C(NC1CCC(O)CC1)[C@@H]1NC2(CCCCC2)[C@@]2(C(=O)Nc3cc(Cl)ccc32)[C@H]1c1cccc(Cl)c1F (some centres unmarked) [Compound 41]	< 0.1 µM	
CNC(=O)[C@@H]1NC2(CCCCC2)[C@@]2(C(=O)Nc3cc(Cl)ccc32)[C@H]1c1cc(Cl)cnc1OC(C)(C)C(=O)O [Compound 35]	> 10 µM	
O=C(NCCN1CCOCC1)[C@@H]1NC2(CCC(F)(F)CC2)[C@]2(C(=O)Nc3cc(Cl)ccc32)[C@H]1c1cccc(Cl)c1F [Compound 8]	< 5 µM	
O=C(NC1CCC(O)CC1)[C@@H]1NC2(CCOCC2)[C@]2(C(=O)Nc3cc(Cl)ccc32)[C@H]1c1cccc(Cl)c1F (some centres unmarked) [compound 10]		Stability in solution (isomer conversion) [2]: converted into Compound Example No. 11
O=C(NC1CCC(O)CC1)[C@@H]1NC[C@@]2(C(=O)Nc3cc(Cl)ccc32)[C@H]1c1cccc(Cl)c1F (some centres unmarked) [Compound 5]	> 10 µM	
CS(=O)(=O)CCNC(=O)[C@@H]1NC2(CCCCC2)[C@@]2(C(=O)Nc3cc(Cl)ccc32)[C@H]1c1cccc(Cl)c1F [Compound 20]	< 0.1 µM	
O=C(NC1CN(C(=O)O)C1)[C@@H]1NC2(CCCCC2)[C@@]2(C(=O)Nc3cc(Cl)ccc32)[C@H]1c1cccc(Cl)c1F [compound 39]		Stability in solution [3]: more stable than MI-77301; Stability in solution [4]: more stable than MI-77301
CNC(=O)[C@@H]1NC2(CCCCC2)[C@@]2(C(=O)Nc3cc(Cl)ccc32)[C@H]1c1cc(Cl)ccc1OC(C)(C)C(=O)O [Compound 34]	> 10 µM	
CC1(C)N[C@@H](C(=O)NC2CCC(O)CC2)[C@H](c2cccc(Cl)c2F)[C@]12C(=O)Nc1cc(Cl)ccc12 (some centres unmarked) [Compound 1]	0.201 µM	Ki ([1]; FP competition with PMDM6-F peptide, read-out: Binding affinities to MDM2 (1-118) Ki): 0.0264 µM
